From US7273717B2 (priority 2003, dated 2007)
Read-outs that look alike come from different tables or passages of the source. Peptide text beside a SMILES is read from it. * marks the point of attachment. Cbz = O=C(OCc1ccccc1)*

Assays:
GS-9005 hydrolase B = type: biochemical, human
GS-9005 hydrolase A = type: biochemical, human; settings: pH 6.5; read-out: Inhibition profile IC50, 9005 Hydrolase A
[1] = pH 6.5, read-out: Inhibition profile IC50, 9005 Hydrolase B
[2] = read-out: concentration at which GS-9005 hydrolase B is inhibited by 50%

O=c1oc(Cl)c(Cl)c2ccccc12 [3,4 DCI, 3,4 dichloroisocoumarin]
inhibition of GS-9005 hydrolase B (in words) (GS-9005 hydrolase B): inhibited
IC50 (GS-9005 hydrolase B; [1]): 4 µM
IC50 (GS-9005 hydrolase B; [2]): ~4 µM
IC50 (GS-9005 hydrolase A): > 150 µM

O=C[C@@H]1CCCN1C(=O)[C@@H]1CCCN1C(=O)OCc1ccccc1 [Cbz-pro-pro-COH, Carboxybenzoyl-Pro-Pro-COH] (Cbz-Pro-Pro-aldehyde)
IC50 (GS-9005 hydrolase B; [1]): > 100 µM
IC50 (GS-9005 hydrolase B; [2]): > 100 µM

CCOP(=O)(OCC)Oc1ccc([N+](=O)[O-])cc1 [paraoxon]
IC50 (GS-9005 hydrolase B; [1]): 0.02 µM
IC50 (GS-9005 hydrolase B; [2]): ~0.02 µM
IC50 (GS-9005 hydrolase A): 0.03 µM
